Assay results published in patent publication US20030165486A1, “Compositions and methods for the induction of retinal detachments” (priority 1999, published 2003).
Where two headings read alike, the source gives them in different places.

Columns and labels:
[1] = system: retina of rabbit eyes; type: in vivo; settings: for Electro Retinography Results / Histological and Electron Microscopic Results / Retinal Detachment at 48 hours Post 2nd Injection / Retinal Reattachment at 3 weeks Post 2nd Injection: 50 μl of 75 I.U. hyaluronidase intravitreally, 3 days later 50 μl sterile PEG, n = 6; for Retinal Detachment at 48 hours Post 2nd Injection / Retinal Reattachment at 3 weeks Post 2nd Injection: fundus photos, β scans; for safety by indirect ophthalmoscopy, fundus photography, light and electron microscopy and electroretinography: intravitreal hyaluronidase followed by intravitreal PEG
Experimental: In this study, 12-pigmented rabbits were divided into 2 groups of 6 animals each. Group I consisted of six animals that were injected OD with PEG 300. […] As a control, these same animals received saline injections OS and thus served as a control group (Group Ia).
Group II consisted of six animals that were injected that were injected OD with PEG 400. […] As a control, these same animals received saline injections OS and thus served as a control group (Group IIa).
During this procedure a number of ophthalmic methodologies were utilized to monitor the effects and progress of the various experimental treatments. For example, indirect ophthalmoscopy was utilized by a retinal specialist to determine the effects of administering a retinal detaching dose of the compounds disclosed. […] Light microscopy and electron microscopy of eye samples was used to determine the effect of the treatments from a histological perspective. Ultrasonography techniques were used to objectively determine the presence of retinal detachment. Additionally, electroretinography was performed to determine changes due to treatment.

[2] = system: detached retinas of cats; test: Protection of surgically detached retina from degeneration in adult cats (Example 6); type: in vivo, adult cats (Felis domesticus); settings: 100 μl of Table 5 formulation 6 hours after detachment, 3 days
Experimental: The study is performed on 15 adult cats (Felis domesticus) and modeled generally on the study of Mervin, et al., “Limiting Photoreceptor Death and Deconstruction During Experimental Retinal Detachment: The Value of Oxygen Supplementation,” Am. J. Ophthal. 128:155-164 (1999). Unlike the Mervin study however, the present experiment examines the effect of hyaluronidase administration to prevent photoreceptor death rather than the effect of supplemental oxygen administration.
Three groups of five adult domestic cats (Experimental Group I, Experimental Group II, and Control Group I) are anesthetized using 10 mg/kg of xylazine (Boehringer Ingelheim Vetmedica, Inc., St. Joseph, Mo.) and 50 mg/kg of ketamine (Sigma, St. Louis, Mo.). The surgical method of Anderson, et al., (Invest. Ophthalmol. Vis. Sci. 27:168-183 (1986)) is used to induce retinal detachment in two experimental groups of 5 cats each, however, the lens and vitreous of these cats are left in place during the surgical procedure.
During the procedure, a glass micropipette is introduced through a 20-gauge hole in the sclera at the region of the pars plana. A balanced salt solution (BSS) containing 0.25% sodium hyaluronate is then infused between the neural retina and retinal pigment epithelium. A single detachment is produced in the right eye of each of the 10 cats.
The experimental groups are allowed to recover for six hours. […]

[3] = system: retina of rabbit eyes; test: Induction of reversible retinal detachment in rabbits using varying concentration of PEG 300 (Example 5); type: in vivo
Experimental: In this study, 8-pigmented rabbits were divided into 4 groups of 2 animals each. Group I consisted of 2 animals treated with 100% PEG 300. As performed in Example 1, these animals were first injected intravitreally (OD) with 50 μl of 75 I.U. of Hyaluronidase solution (Group I). Fourteen days after the first injection these animals received 50 μl of 100% sterile PEG 300 intravitreally. The OS eye was used as the untreated control as described in Example 1 (Group Ia). A second group of two animals, Group II, was first injected intravitreally (OD) with 50 μl of 75 I.U. of Hyaluronidase solution and then injected 14 days later with 50 μl of sterile 75% solution of PEG 300 intravitreally. The OS eyes of these animals were used as the untreated controls (Group IIa). […] were treated according to the same protocols as described for Groups I, Ia, II, and IIa with the exception that Group III received 50 μl of 50% sterile solution of PEG 300 intravitreally. Similarly, Groups IV and IVa were treated according to the same protocols as described above, however, Group IV received 50 μl of 25% sterile solution of PEG 300 intravitreally.
All retinal detachments and retinal re-attachments were documented using Fundus Photography and Ultrasonography (β-Scan). In addition, 3 rabbit eyes were enucleated and the eyes were prepared for light microscopy as well as for Electron Microscopy.

[4] = system: eyes of rabbits
Experimental: Fifty-two (52) healthy rabbits of the New Zealand Cross variety (26 male, 26 female) weighing 1.5 kg to 2.5 kg were individually marked for identification and were housed individually in suspended cages. The animals received a commercially available pelleted rabbit feed on a daily basis, with tap water available ad libitum.
Two animals in each group (1 male, 1 female) were selected for pretreatment fundus photography and fluorescein angiography.
The fundus photography was performed by restraining the animals and visualizing the optic nerve, retinal arcades and fundus with a KOWA® RC-3 Fundus Camera loaded with Kodak Gold 200 ASA film.
The fluorescein angiography involved a 1.5-ml injection of 2% sterile fluorescein solution via the marginal ear vein. Approximately 30 seconds post-injection the fluorescein was visualized upon localization of the optic nerve, retinal vessels and fundus.
The following day, each animal was anesthetized by intravenous administration of a combination of 34 mg/kg of ketamine hydrochloride and 5-mg/kg xylazine. The eyelids were retracted using a lid speculum, and the eyes were disinfected with an iodine-povidone wash.
The experimental treatments administered to each animal group were as follows:
The day following the injections (Day 1) the 26 animals, which were subjected to the fundus photography and fluorescein angiography, were observed using the same methods as for the pre-dose examination.
Alternatively, one randomly selected rabbit was euthanized by pentobarbital injection but then fixed by intracardiac injection of the gluteraldehyde solution into the left ventricle to determine the effect of the fixation procedure on the histology findings within the enucleated eyes.
On Day 7, the 13 female rabbits that had been previously photographed and angiography performed were subjected to same observations following the methods previously described.
The remaining 26 animals were euthanized as described above 7 days after dosing. The eyes were fixed in the same manner as those, which had been fixed on day 2. […]

[5] = 75 I.U. hyaluronidase, 14 days later varying concentrations of PEG 300
[6] = Groups I-IV OD: 75 I.U. hyaluronidase, 14 days later 50 μl sterile 100%, 75%, 50% or 25% PEG 300, fundus photos, β scans

Compound | Electro Retinography Results [1] | Histological and Electron Microscopic Results [1] | Retinal Detachment at 48 hours Post 2nd Injection [1] | Retinal Reattachment at 3 weeks Post 2nd Injection [1] | safety by indirect ophthalmoscopy, fundus photography, light and electron microscopy and electroretinography [1] | thickness of the outer nuclear layer after retinal detachment surgery [2] | time to induced retinal detachment after second intravitreal injection [3, 5] [h] | time to spontaneous retinal re-attachment after the PEG injection [3, 5] [weeks] | Retinal Detachment At 48 hours Post 2nd Injection [3, 6] | Retinal Reattachment At 3 weeks Post 2nd Injection [3, 6] | Histological and Electron Microscopic Results ([3]; Groups I-IV OD: 100%, 75%, 50% or 25% PEG 300, 3 enucleated eyes) | Electro Retinography Results ([3]; Groups I-IV OD: 100%, 75%, 50% or 25% PEG 300, after retinal detachment and spontaneous re-attachment 3 weeks later) | safety / toxicity of intravitreal injection ([3]; hyaluronidase followed by PEG 300 at 100%, 75%, 50% and 25% in saline vehicle) | treatment-related toxicities, eyes examined grossly and microscopically ([4]; Group 2, BSS+thimerosal 0.0075 mg, day 2) | treatment-related toxicities, eyes examined grossly and microscopically ([4]; Group 2, BSS+thimerosal 0.0075 mg, day 7) | treatment-related toxicities, eyes examined grossly and microscopically ([4]; Group 3, BSS+thimerosal 0.025 mg, day 2 and 7 post dose)
Polyethylene Glycol 400 [PEG 400] | Normal | Normal | All | All | safe and without causing any toxicity |  |  |  |  |  |  |  |  |  |  | 
Polyethylene Glycol 300 [PEG 300] | Normal | Normal | All | All | safe and without causing any toxicity | Thinning of the outer nuclear layer is observed | ≤ 48 | ≤ 3 | All | All | No Adverse | No Adverse | safe and without causing any toxicity |  |  | 
C[CH2][Hg][S]c1ccccc1C(=O)[O-].[Na+] [thimerosal] |  |  |  |  |  |  |  |  |  |  |  |  |  | free of toxicity | breakdown of the blood retinal barrier | severe treatment-related toxic effects
